In patent US11840686B2, “Modulation of prekallikrein (PKK) expression” (Ionis Pharmaceuticals, Inc., priority 2013, dated 2023):
Strand notation (5' to 3'): a small letter for the sugar, then the base; units joined by * are phosphorothioate-linked, units joined directly phosphodiester-linked; [ ] holds rarer units or linkages, { } end groups; capitals alone tell only the bases. e = 2'-O-(2-methoxyethyl) (MOE); [5mC] = 5-methylcytosine; d = 2'-deoxy (DNA)

Experiments:
human PKK mRNA [1] = experiment: Dose-dependent antisense inhibition of human PKK in HepaRG cells, 0.19-5.00 uM (Example 5); assay type: cell-based; conditions: for percent inhibition of PKK mRNA, 0.19 μM: 0.19 μM antisense oligonucleotide; for percent inhibition of PKK mRNA, 0.56 μM: 0.56 μM antisense oligonucleotide; for percent inhibition of PKK mRNA, 1.67 μM: 1.67 μM antisense oligonucleotide; for percent inhibition of PKK mRNA, 5.00 μM: 5.00 μM antisense oligonucleotide
Summary of the method: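 PKK mRNA knockdown was measured by real-time PCR (primer probe set RTS3454) about 16 h after electroporating 20,000 HepaRG cells per well with oligonucleotide at four doses from 0.19 to 5.00 μM. Levels were adjusted to RIBOGREEN-measured total RNA, and IC50 values were calculated.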

human PKK mRNA [2] = experiment: Antisense inhibition of human PKK mRNA in HepaRG cells, 5,000 nM (Example 2); assay type: cell-based
Summary of the method: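 Percent inhibition of PKK mRNA is relative to untreated control, with qRT-PCR (probe set RTS3454) values adjusted to total RNA by RIBOGREEN. Oligonucleotides, fully phosphorothioate 2′-MOE gapmers, were delivered at 5,000 nM by electroporation into 20,000 HepaRG cells/well for about 24 h.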

[3] = HepaRG cells, electroporation, approximately 16 hours, Table 38
[4] = HepaRG cells, electroporation with 5,000 nM antisense oligonucleotide, approximately 24 hours, PKK mRNA by RT-PCR (RTS3454), relative to untreated control cells, Table 6 experiment
[5] = Table 34, HepaRG, electroporation, ~16 h
[6] = HepaRG cells, electroporation, approximately 16 hours, Table 35
[7] = HepaRG cells, electroporation, approximately 16 hours, Table 36
[8] = human PKK mRNA, HepaRG cells, 5-10-5 motif oligonucleotides targeting SEQ ID NO: 1 and 10
[9] = HepaRG cells, electroporation, approximately 16 hours, Table 40
[10] = 4 point dose response, HepaRG cells, Table 40
[11] = HepaRG cells, electroporation, approximately 16 hours, Table 39

## 547337 (antisense eA*eA*e[5mC]*eT*e[5mC]*d[5mC]*dT*dT*dT*dA*dT*dA*dA*dA*dT*eG*eT*e[5mC]*eT*e[5mC]) [compound 547337]
Human PKK mRNA [1]; [3]
  percent inhibition of PKK at 0.19 μM: 23%
  percent inhibition of PKK at 0.56 μM: 41%
  percent inhibition of PKK at 1.67 μM: 55%
  percent inhibition of PKK at 5.00 μM: 79%
Human PKK mRNA [1]; 4 point dose response, HepaRG cells, Table 38
  IC50: 1000 nM
Human PKK mRNA [2]; [4]
  % inhibition: 84%

## 546188 (antisense e[5mC]*eT*e[5mC]*e[5mC]*eT*dT*dT*dA*dT*dA*dA*dA*dT*dG*dT*e[5mC]*eT*e[5mC]*eG*eA) [compound 546188]
Human PKK mRNA [1]; HepaRG cells, electroporation, approximately 16 hours, Table 41
  percent inhibition of PKK at 5.00 μM: 97%
Human PKK mRNA [1]; 0.19 0μM, HepaRG cells, electroporation, approximately 16 hours, Table 41
  percent inhibition of PKK at 0.19 0μM: 27%
Human PKK mRNA [1]; 0.56 0μM, HepaRG cells, electroporation, approximately 16 hours, Table 41
  percent inhibition of PKK at 0.56 0μM: 69%
Human PKK mRNA [1]; 1.67 1μM, HepaRG cells, electroporation, approximately 16 hours, Table 41
  percent inhibition of PKK at 1.67 1μM: 88%
Human PKK mRNA [1]; 4 point dose response, HepaRG cells, Table 41
  IC50: 400 nM
Human PKK mRNA [1]; [5]
  percent inhibition of PKK at 0.19 μM: 36%
  percent inhibition of PKK at 0.56 μM: 55%
  percent inhibition of PKK at 1.67 μM: 81%
  percent inhibition of PKK at 5.00 μM: 83%
Human PKK mRNA [1]; Table 34, PKK mRNA, HepaRG, electroporation, ~16 h
  IC50: 400 nM
Human PKK mRNA [2]; [4]
  % inhibition: 95%

## 546849 (eA*eT*e[5mC]*eA*e[5mC]*dT*dG*dT*d[5mC]*d[5mC]*dT*dA*dT*dA*dT*e[5mC]*eA*e[5mC]*eT*eG; antisense) [compound 546849]
Human PKK mRNA [1]; [6]
  percent inhibition of PKK at 0.19 μM: 23%
  percent inhibition of PKK at 0.56 μM: 35%
  percent inhibition of PKK at 1.67 μM: 83%
  percent inhibition of PKK at 5.00 μM: 91%
Human PKK mRNA [1]; 4 point dose response, HepaRG cells, Table 35
  IC50: 700 nM
Human PKK mRNA [1]; HepaRG cells
  percent inhibition of PKK mRNA, 0.19 μM: 13%
  percent inhibition of PKK mRNA, 0.56 μM: 45%
  percent inhibition of PKK mRNA, 1.67 μM: 84%
  percent inhibition of PKK mRNA, 5.00 μM: 98%
Human PKK mRNA [1]; HepaRG cells, 0.19-5.00 μM
  IC50: 700 nM
Human PKK mRNA [2]; human PKK mRNA in HepaRG cells, 5-10-5 gapmers, Table 14
  % inhibition: 93%

## 546903 (e[5mC]*e[5mC]*eT*eA*eT*dA*dT*d[5mC]*dA*d[5mC]*dT*dG*dT*dA*d[5mC]*e[5mC]*eT*eA*eT*eA; antisense) [compound 546903]
Human PKK mRNA [1]; [7]
  percent inhibition of PKK at 0.19 μM: 15%
  percent inhibition of PKK at 0.56 μM: 37%
  percent inhibition of PKK at 1.67 μM: 74%
  percent inhibition of PKK at 5.00 μM: 98%
Human PKK mRNA [1]; 4 point dose response, HepaRG cells, Table 36
  IC50: 800 nM
Human PKK mRNA [2]; [8]
  % inhibition: 91%

## 546310 (antisense eG*eA*eT*eT*e[5mC]*d[5mC]*d[5mC]*dT*dT*d[5mC]*dT*dG*dA*dG*dA*e[5mC]*eT*eT*eT*eA) [compound 546310]
Human PKK mRNA [1]; [9]
  percent inhibition of PKK at 0.19 μM: 0%
  percent inhibition of PKK at 0.56 μM: 36%
  percent inhibition of PKK at 1.67 μM: 56%
  percent inhibition of PKK at 5.00 μM: 80%
Human PKK mRNA [1]; [10]
  IC50: 1300 nM
Human PKK mRNA [2]; Table 9 experiment, HepaRG cells, 20,000 cells per well, electroporation with 5,000 nM antisense oligonucleotide, approx. 24 hours, PKK mRNA by RT-PCR (RTS3454), relative to untreated control cells
  % inhibition: 78%
Human PKK mRNA [2]; Table 10 experiment, HepaRG cells, 20,000 cells per well, electroporation with 5,000 nM antisense oligonucleotide, approx. 24 hours, PKK mRNA by RT-PCR (RTS3454), relative to untreated control cells
  % inhibition: 67%

## 547019 (eG*eA*eT*e[5mC]*eG*dG*dT*dG*dG*dT*dG*dG*dG*dA*dT*eT*eG*eG*eT*e[5mC]; antisense) [compound 547019]
Human PKK mRNA [1]; [9]
  percent inhibition of PKK at 0.19 μM: 0%
  percent inhibition of PKK at 0.56 μM: 6%
  percent inhibition of PKK at 1.67 μM: 54%
  percent inhibition of PKK at 5.00 μM: 86%
Human PKK mRNA [1]; [10]
  IC50: 1600 nM
Human PKK mRNA [2]; HepaRG cells, 5,000 nM antisense oligonucleotide, 5-10-5 gapmers, Table 17
  % inhibition: 83%

## 547632 (antisense eT*e[5mC]*eA*e[5mC]*eT*dG*dT*d[5mC]*d[5mC]*dT*dA*dT*dA*dT*d[5mC]*eA*e[5mC]*eT*e[5mC]*eT) [compound 547632]
Human PKK mRNA [1]; [11]
  percent inhibition of PKK at 0.19 μM: 44%
  percent inhibition of PKK at 0.56 μM: 47%
  percent inhibition of PKK at 1.67 μM: 81%
  percent inhibition of PKK at 5.00 μM: 97%
Human PKK mRNA [1]; 4 point dose response, HepaRG cells, Table 39
  IC50: 600 nM
Human PKK mRNA [1]; HepaRG cells
  percent inhibition of PKK mRNA, 0.19 μM: 0%
  percent inhibition of PKK mRNA, 0.56 μM: 0%
  percent inhibition of PKK mRNA, 1.67 μM: 63%
  percent inhibition of PKK mRNA, 5.00 μM: 91%
Human PKK mRNA [1]; HepaRG cells, 0.19-5.00 μM
  IC50: 1600 nM
Human PKK mRNA [2]; [8]
  % inhibition: 87%
